Patent US10329281B2, “Polymorphs and process for the preparation of quinazolinyl derivatives” (HETERO LABS LTD, priority 2015, dated 2019)

Assays:
[1] = Stability data of Afatinib dimaleate crystalline Form H3 on storage (PXRD, impurity, water content); assay type: physicochemical
Protocol: X-ray powder diffraction spectrum was measured on a bruker axs D8 advance X-ray powder diffractometer having a copper-a radiation. Adequate sample was gently flattered on a sample holder and scanned from 2 to 50 degrees two-theta, at 0.02 increment and scan speed of 0.2 Sec/Step. The sample was simply placed on the sample holder. The sample was rotated at 30 rpm at a voltage 40 KV and current 35 mA.

[2] = as above; assay type: physicochemical; design: Impurity: unit not given here
[3] = 25 ± 2° C./RH 60 ± 5%, 2nd Month
[4] = 25 ± 2° C./RH 60 ± 5%, 1st Month
[5] = 25 ± 2° C./RH 60 ± 5%, 3rd Month

CN(C)C/C=C/C(=O)Nc1cc2c(Nc3ccc(F)c(Cl)c3)ncnc2cc1O[C@H]1CCOC1 [Afatinib dimaleate crystalline Form H3, 2-Butenamide, N-[4-[(3-Chloro-4-fluorophenyl)amino]-7-[[(3S)-tetrahydro-3-furanyl]oxy]-6-quinazolinyl]-4(dimethylamino),(2E)-]
PXRD ([1]; 5 ± 3° C., 1st Month): Form H3
PXRD ([1]; 5 ± 3° C., 3rd Month): Form H3
PXRD ([1]; 5 ± 3° C., Initial): Form H3
PXRD [1, 3]: Form H3
Impurity ([2]; 5 ± 3° C., 1st Month): 0.22
Water Content ([2]; 5 ± 3° C., 1st Month): 1.34%
Impurity ([2]; 5 ± 3° C., 2nd Month): 0.26
PXRD ([2]; 5 ± 3° C., 2nd Month): Form H3
Water Content ([2]; 5 ± 3° C., 2nd Month): 1.4%
Impurity ([2]; 5 ± 3° C., 3rd Month): 0.27
Water Content ([2]; 5 ± 3° C., 3rd Month): 1.26%
Impurity ([2]; 5 ± 3° C., Initial): 0.22
Water Content ([2]; 5 ± 3° C., Initial): 1%
Impurity [2, 4]: 0.22
PXRD [2, 4]: Form H3
Water Content [2, 4]: 1.18%
Impurity [2, 3]: 0.38
Water Content [2, 3]: 1.35%
Impurity [2, 5]: 0.43
PXRD [2, 5]: Form H3
Water Content [2, 5]: 1.56%
Impurity ([2]; 25 ± 2° C./RH 60 ± 5%, Initial): 0.22
PXRD ([2]; 25 ± 2° C./RH 60 ± 5%, Initial): Form H3
Water Content ([2]; 25 ± 2° C./RH 60 ± 5%, Initial): 1%
stability ([2]; at 5±3° C. and 25±2° C./RH (Relative humidity) 60±5%): stable
